Data from the NIST ThermoML archive (doi:10.1021/acs.jced.5b00049).
± gives the expanded uncertainty stated by the source.

Conditions: Liquid, Buoyancy - hydrostatic balance with magnetic suspension - one sinker

CCCCCCCCCCCCCC [tetradecane]
Conditions	mass density [kg/m3]
313.13 K, 16040 kPa	760.35 ± 0.24
313.15 K, 14050 kPa	759.03 ± 0.24
313.15 K, 18060 kPa	761.65 ± 0.24
313.17 K, 19040 kPa	762.28 ± 0.24
313.19 K, 10020 kPa	756.25 ± 0.24
313.23 K, 12040 kPa	757.62 ± 0.24
323.14 K, 14050 kPa	752.38 ± 0.24
323.18 K, 12040 kPa	750.93 ± 0.24
323.18 K, 16070 kPa	753.74 ± 0.24
323.23 K, 18060 kPa	755.07 ± 0.24
323.25 K, 19080 kPa	755.76 ± 0.24
323.26 K, 10000 kPa	749.44 ± 0.24
333.13 K, 18050 kPa	748.61 ± 0.24
333.13 K, 19060 kPa	749.31 ± 0.24
333.14 K, 10050 kPa	742.64 ± 0.23
333.16 K, 12040 kPa	744.14 ± 0.24
333.16 K, 16060 kPa	747.18 ± 0.24
333.28 K, 14060 kPa	745.66 ± 0.24
343.31 K, 16030 kPa	740.68 ± 0.23
343.31 K, 19040 kPa	742.92 ± 0.23
343.32 K, 10040 kPa	736 ± 0.23
343.32 K, 12050 kPa	737.59 ± 0.23
343.34 K, 18020 kPa	742.16 ± 0.23
343.35 K, 14070 kPa	739.16 ± 0.23
353.48 K, 16030 kPa	734.17 ± 0.23
353.5 K, 18010 kPa	735.7 ± 0.23
353.51 K, 19050 kPa	736.41 ± 0.23
353.58 K, 12050 kPa	730.83 ± 0.23
353.63 K, 10020 kPa	729.05 ± 0.23
353.66 K, 14040 kPa	732.42 ± 0.23
